Where two headings read alike, the source gives them in different places.
How the values were obtained:
S. aureus ATCC 33593 = test system: S. aureus ATCC 33593
Summary of the method: (§1)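 Broth microdilution per CLSI in Müller-Hinton broth and modified LYM broth (pH 7.4; variants with 50–300 mM NaCl, 0.5–2.5 mM MgCl2, or pH 6.5–4.5). Inoculum 5 × 10^5 CFU/mL; peptides tested at 0.78–50 µg/mL final. MIC read; three independent repeats.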

[1] = test system: A. baumannii 14B0097 (Acinetobacter sp., BCRC number 14B0097)
Summary of the method: as §1

S. aureus ATCC 25923 = test system: S. aureus ATCC 25923
Summary of the method: as §1

S. aureus ATCC 33591 = test system: S. aureus ATCC 33591
Summary of the method: as §1

[2] = test system: Escherichia coli (ATCC 25922)
Summary of the method: as §1

[3] = test system: A. baumannii 14B0091 (Acinetobacter sp., BCRC number 14B0091)
Summary of the method: as §1

[4] = test system: Both Gram-positive and -negative bacteria; assay: Geometric mean MIC, therapeutic index and fold changes of MIC, whole panel of strains; assay type: cell-based
Summary of the method: (§2)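 CLSI broth microdilution in MH broth or modified LYM broth (pH 7.4, varied NaCl, MgCl2, pH), 5 × 10^5 CFU/mL, peptides 0.78–50 µg/mL; three independent repeats.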

Gram-positive bacteria = assay: Geometric mean MIC and therapeutic index, Gram-positive bacteria; assay type: cell-based; settings: Gram-positive bacteria
Summary of the method: as §2

[5] = LYM broth, 0 mM NaCl, 16 h, 37 °C
[6] = LYM broth, 50 mM NaCl, 16 h, 37 °C
[7] = LYM broth, 100 mM NaCl, 16 h, 37 °C
[8] = LYM broth, 200 mM (NaCl), 16 h, 37 °C
[9] = LYM broth, 300 mM (NaCl), 16 h, 37 °C
[10] = MH broth, 5 × 10^5 CFU/mL, 16 h, 37 °C, repeated three times

## Ac-AKKKKWRKWLKWL-NH2 [Peptide W5K10]
S. aureus ATCC 33593; [5]
  MIC: 3.13 µg/mL
S. aureus ATCC 33593; LYM broth, 0.5 mM MgCl2
  MIC: 3.13 µg/mL
S. aureus ATCC 33593; LYM broth, 1.5 mM MgCl2
  MIC: 3.13 µg/mL
S. aureus ATCC 33593; LYM broth, 2.5 mM MgCl2
  MIC: 6.25 µg/mL
S. aureus ATCC 33593; [6]
  MIC: 6.25 µg/mL
S. aureus ATCC 33593; [7]
  MIC: 6.25 µg/mL
S. aureus ATCC 33593; [8]
  MIC: 12.5 µg/mL
S. aureus ATCC 33593; [9]
  MIC: 25 µg/mL
S. aureus ATCC 33593; LYM broth, pH 4.5
  MIC: 6.25 µg/mL
S. aureus ATCC 33593; LYM broth, pH 5.5
  MIC: 3.13 µg/mL
S. aureus ATCC 33593; LYM broth, pH 6.5
  MIC: 3.13 µg/mL
S. aureus ATCC 33593; [10]
  MIC: 12.5 µg/mL
[1]; [5]
  MIC: 1.56 µg/mL
[1]; LYM broth, 0.5 mM MgCl2
  MIC: 1.56 µg/mL
[1]; LYM broth, 1.5 mM MgCl2
  MIC: 1.56 µg/mL
[1]; LYM broth, 2.5 mM MgCl2
  MIC: 3.13 µg/mL
[1]; [6]
  MIC: 1.56 µg/mL
[1]; [7]
  MIC: 1.56 µg/mL
[1]; [8]
  MIC: 1.56 µg/mL
[1]; [9]
  MIC: 6.25 µg/mL
[1]; LYM broth, pH 4.5
  MIC: 3.13 µg/mL
[1]; LYM broth, pH 5.5
  MIC: 1.56 µg/mL
[1]; LYM broth, pH 6.5
  MIC: 1.56 µg/mL
[1]; [10]
  MIC: 1.56 µg/mL
S. aureus ATCC 25923; [5]
  MIC: 3.13 µg/mL
S. aureus ATCC 25923; LYM broth, 0.5 mM MgCl2
  MIC: 1.56 µg/mL
S. aureus ATCC 25923; LYM broth, 1.5 mM MgCl2
  MIC: 3.13 µg/mL
S. aureus ATCC 25923; LYM broth, 2.5 mM MgCl2
  MIC: 3.13 µg/mL
S. aureus ATCC 25923; [6]
  MIC: 3.13 µg/mL
S. aureus ATCC 25923; [7]
  MIC: 6.25 µg/mL
S. aureus ATCC 25923; [8]
  MIC: 12.5 µg/mL
S. aureus ATCC 25923; [9]
  MIC: 25 µg/mL
S. aureus ATCC 25923; LYM broth, pH 4.5
  MIC: 3.13 µg/mL
S. aureus ATCC 25923; LYM broth, pH 5.5
  MIC: 3.13 µg/mL
S. aureus ATCC 25923; LYM broth, pH 6.5
  MIC: 3.13 µg/mL
S. aureus ATCC 25923; [10]
  MIC: 6.25 µg/mL
S. aureus ATCC 33591; [5]
  MIC: 3.13 µg/mL
S. aureus ATCC 33591; LYM broth, 0.5 mM MgCl2
  MIC: 3.13 µg/mL
S. aureus ATCC 33591; LYM broth, 1.5 mM MgCl2
  MIC: 3.13 µg/mL
S. aureus ATCC 33591; LYM broth, 2.5 mM MgCl2
  MIC: 6.25 µg/mL
S. aureus ATCC 33591; [6]
  MIC: 6.25 µg/mL
S. aureus ATCC 33591; [7]
  MIC: 6.25 µg/mL
S. aureus ATCC 33591; [8]
  MIC: 12.5 µg/mL
S. aureus ATCC 33591; [9]
  MIC: 25 µg/mL
S. aureus ATCC 33591; LYM broth, pH 4.5
  MIC: 6.25 µg/mL
S. aureus ATCC 33591; LYM broth, pH 5.5
  MIC: 3.13 µg/mL
S. aureus ATCC 33591; LYM broth, pH 6.5
  MIC: 3.13 µg/mL
S. aureus ATCC 33591; [10]
  MIC: 12.5 µg/mL
[2]; [5]
  MIC: 3.13 µg/mL
[2]; LYM broth, 0.5 mM MgCl2
  MIC: 3.13 µg/mL
[2]; LYM broth, 1.5 mM MgCl2
  MIC: 6.25 µg/mL
[2]; LYM broth, 2.5 mM MgCl2
  MIC: 6.25 µg/mL
[2]; [6]
  MIC: 3.13 µg/mL
[2]; [7]
  MIC: 12.5 µg/mL
[2]; [8]
  MIC: 12.5 µg/mL
[2]; [9]
  MIC: 25 µg/mL
[2]; LYM broth, pH 4.5
  MIC: 3.13 µg/mL
[2]; LYM broth, pH 5.5
  MIC: 1.56 µg/mL
[2]; LYM broth, pH 6.5
  MIC: 1.56 µg/mL
[2]; [10]
  MIC: 6.25 µg/mL
[3]; [5]
  MIC: 1.56 µg/mL
[3]; LYM broth, 0.5 mM MgCl2
  MIC: 1.56 µg/mL
[3]; LYM broth, 1.5 mM MgCl2
  MIC: 1.56 µg/mL
[3]; LYM broth, 2.5 mM MgCl2
  MIC: 3.13 µg/mL
[3]; [6]
  MIC: 1.56 µg/mL
[3]; [7]
  MIC: 1.56 µg/mL
[3]; [8]
  MIC: 1.56 µg/mL
[3]; [9]
  MIC: 3.13 µg/mL
[3]; LYM broth, pH 4.5
  MIC: 3.13 µg/mL
[3]; LYM broth, pH 5.5
  MIC: 1.56 µg/mL
[3]; LYM broth, pH 6.5
  MIC: 1.56 µg/mL
[3]; [10]
  MIC: 1.56 µg/mL
[4]; Both Gram-positive and -negative bacteria, MH broth, MIC >50 µg/mL counted as 100 µg/mL
  GM G−/+ (geometric mean of the MIC values): 5.4 µg/mL
[4]; HC10/GM, both Gram-positive and -negative bacteria
  Therapeutic Index (TI) G−/+: 20.0
[4]; LYM broth, 300 mM NaCl
  weakening of antibacterial efficacy (MIC): up to 4 fold
Gram-positive bacteria; MH broth, MIC >50 µg/mL counted as 100 µg/mL
  GM G+ (geometric mean of the MIC values): 9.5 µg/mL
Gram-positive bacteria; HC10/GM
  Therapeutic Index (TI) G+: 11.5
